Patent publication EP4813993A1, “COMPOUND, PREPARATION METHOD THEREFOR, AND USE THEREOF” (Sichuan Kelun Pharmaceutical Research Institute Co., Ltd., priority 2023, dated 2025)
pIC50: −log10 of the molar value.

molecular target: T1, Nav1.8 channels (Homo sapiens, UniProt Q9Y5Y9); assay: Manual patch-clamp, current of stably overexpressed Nav1.8 channels (resting state voltage program); format: cell-based; details: not given
T1 construct: expressed in transfected cells
Method: Experimental Example 1: Effects of test substances on current of stably overexpressed Nav1.8 channels monitored via manual patch-clamp technique
Test compounds were dissolved in dimethyl sulfoxide (DMSO).
The extracellular fluid was as follows: 140 mM NaCl, 3.5 mM KCl, 1 mM MgCl2•6H2O, 2 mM CaCl2•2H2O, 10 mM D-Glucose, 10 mM HEPES, 1.25 mM NaH2PO4•2H2O; the pH was adjusted to 7.4 with NaOH. The intracellular fluid was as follows: 50 mM CsCl, 10 mM NaCl, 10 mM HEPES, 60 mM CsF, 20 mM EGTA; the pH was adjusted to 7.2 with CsOH.
2. Experimental materials and instruments
• 1) patch-clamp amplifier: EPC 10 (HEKA) • 2) micromanipulator: MP225 (Sutter Instrument) • 3) inverted microscope: MF53 (Mshot) • 4) micropipette puller: P97 (Sutter Instrument) • 5) capillary glass tube: BF150-86-10 (Sutter Instrument)
3. Experimental procedures
• 1) After the compounds were prepared into solutions with specified concentrations, the solutions were sequentially added to the pipeline of the drug delivery system and labeled. • 2) The cell climbing coverslip was placed in the recording chamber, the appropriate cells were selected under the inverted microscope, and the position of the drug delivery tip was adjusted. • 3) A capillary glass tube was pulled into a suitable recording electrode using the micropipette puller, and then the electrode filled with the intracellular fluid was mounted in the microelectrode holder. The micromanipulator was adjusted under the inverted microscope to allow the recording electrode to contact the cell, and negative pressure was applied to the electrode to form a high-resistance seal. At this time, fast capacitance compensation was performed, and then the application of negative pressure was continued to break the cell membrane, forming a whole-cell recording mode. Finally, slow capacitance compensation was performed, and related parameters were recorded. • 4) After the cell current stabilized, administration was started. Each concentration of the drug was applied for five minutes or until the current stabilized before proceeding to monitor the next concentration. The drug solutions were administered via gravity-fed delivery, flowing through the recording chamber to act on the cells in an ascending order of concentration (from low to high). A peristaltic pump was employed for solution exchange in the recording process.
4 Test voltage program (resting state) and results
After the formation of the whole-cell seal, the cell voltage was clamped at -120 mV, followed by depolarization to 0 mV using a square-wave pulse with a duration of 50 ms to elicit Nav1.8 currents. This procedure was repeated every 20 s to monitor the maximum current induced by the square wave. After the current stabilized, the test compounds were administered. Once the response stabilized, the intensity of the current block was calculated.

T1 sequence (Q9Y5Y9 whole entry): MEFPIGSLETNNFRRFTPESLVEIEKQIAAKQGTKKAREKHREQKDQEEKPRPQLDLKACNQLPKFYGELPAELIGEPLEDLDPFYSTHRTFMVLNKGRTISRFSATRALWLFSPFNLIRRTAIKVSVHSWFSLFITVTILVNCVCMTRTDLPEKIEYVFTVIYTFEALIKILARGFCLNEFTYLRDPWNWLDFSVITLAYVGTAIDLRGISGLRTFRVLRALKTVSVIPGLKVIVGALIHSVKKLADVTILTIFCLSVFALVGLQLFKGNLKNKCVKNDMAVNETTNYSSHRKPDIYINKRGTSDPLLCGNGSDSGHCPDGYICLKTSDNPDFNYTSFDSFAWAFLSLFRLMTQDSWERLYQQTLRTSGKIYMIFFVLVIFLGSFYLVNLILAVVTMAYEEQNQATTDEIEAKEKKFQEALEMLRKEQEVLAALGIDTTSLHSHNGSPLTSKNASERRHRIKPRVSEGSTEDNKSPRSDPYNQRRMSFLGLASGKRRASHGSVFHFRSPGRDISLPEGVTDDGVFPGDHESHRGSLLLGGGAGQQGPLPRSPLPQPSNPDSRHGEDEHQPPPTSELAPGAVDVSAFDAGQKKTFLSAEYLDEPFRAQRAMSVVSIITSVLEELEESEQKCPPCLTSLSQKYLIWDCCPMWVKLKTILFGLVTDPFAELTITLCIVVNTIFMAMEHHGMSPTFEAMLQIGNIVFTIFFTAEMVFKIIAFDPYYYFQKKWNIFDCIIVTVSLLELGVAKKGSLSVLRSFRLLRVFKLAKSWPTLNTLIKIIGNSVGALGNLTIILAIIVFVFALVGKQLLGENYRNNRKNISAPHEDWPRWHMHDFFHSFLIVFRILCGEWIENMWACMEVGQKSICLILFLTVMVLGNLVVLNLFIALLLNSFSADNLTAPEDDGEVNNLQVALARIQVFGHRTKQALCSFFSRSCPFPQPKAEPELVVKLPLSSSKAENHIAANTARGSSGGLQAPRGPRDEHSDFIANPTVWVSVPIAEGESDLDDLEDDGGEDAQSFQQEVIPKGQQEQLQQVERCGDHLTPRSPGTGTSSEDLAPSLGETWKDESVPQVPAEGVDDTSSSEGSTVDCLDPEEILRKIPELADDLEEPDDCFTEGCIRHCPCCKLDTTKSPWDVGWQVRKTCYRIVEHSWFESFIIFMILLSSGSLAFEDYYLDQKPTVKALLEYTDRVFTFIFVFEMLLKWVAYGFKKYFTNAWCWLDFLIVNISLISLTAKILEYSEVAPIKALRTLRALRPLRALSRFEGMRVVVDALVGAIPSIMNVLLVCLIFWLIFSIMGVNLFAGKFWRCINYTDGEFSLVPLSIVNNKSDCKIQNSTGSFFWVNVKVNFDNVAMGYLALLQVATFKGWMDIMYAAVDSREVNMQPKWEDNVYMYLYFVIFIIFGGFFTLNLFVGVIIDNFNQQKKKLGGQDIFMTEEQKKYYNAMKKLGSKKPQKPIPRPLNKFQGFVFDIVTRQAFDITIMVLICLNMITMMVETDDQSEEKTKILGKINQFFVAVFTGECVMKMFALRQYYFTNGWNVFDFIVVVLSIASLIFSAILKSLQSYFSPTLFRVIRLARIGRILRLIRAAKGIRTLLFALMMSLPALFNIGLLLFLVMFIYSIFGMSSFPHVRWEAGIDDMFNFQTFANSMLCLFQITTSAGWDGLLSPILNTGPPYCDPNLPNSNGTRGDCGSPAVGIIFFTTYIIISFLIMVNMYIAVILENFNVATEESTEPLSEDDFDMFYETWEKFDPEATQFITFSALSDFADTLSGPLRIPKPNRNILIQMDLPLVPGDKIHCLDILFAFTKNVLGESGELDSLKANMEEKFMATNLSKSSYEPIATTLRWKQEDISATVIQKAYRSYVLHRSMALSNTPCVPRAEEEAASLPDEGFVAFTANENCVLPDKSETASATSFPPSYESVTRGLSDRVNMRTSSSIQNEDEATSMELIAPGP

Compound	pIC50
COc1c([C@@H]2C[C@](C)(C(F)(F)F)S[C@H]2C(=O)Nc2cccc(B3OC(=O)CN(C)CC(=O)O3)c2)ccc(F)c1F [a-35-A, (2R,3S,5R)-3-(3,4-difluoro-2-methoxyphenyl)-5-methyl-N-(3-(6-methyl-4,8-dioxo-1,3,6,2-diazaborinin-2-yl)phenyl)-5-(trifluoromethyl)tetrahydrothiophene-2-carboxamide]	9.16

same assay, conditions: concentration of 1 nM, read-out: Inhibition rate %

Compound	inhibition at 0.001 µM [%]
COc1c([C@@H]2C[C@](C)(C(F)(F)F)S[C@H]2C(=O)Nc2ccc(B3OC(C)(C)C(C)(C)O3)c(F)c2)ccc(F)c1F [Compound 229-A, (2R,3S,5R)-3-(3,4-difluoro-2-methoxyphenyl)-N-(3-fluoro-4-(4,4,5,5-tetramethyl-1,3,2-dioxaborolan-2-yl)phenyl)-5-methyl-5-(trifluoromethyl)tetrahydrothiophene-2-carboxamide]	48.6
COc1c(C2CC(C)(C(F)(F)F)SC2C(=O)Nc2ccc(F)c(N=S(C)(C)=O)c2)ccc(F)c1F (centres unmarked) [a-15]	70.9
COc1c([C@@H]2C[C@](C)(C(F)(F)F)S[C@H]2C(=O)Nc2ccc3c(c2)B(O)NC3=O)ccc(F)c1F [Compound a-2, (2R,3S,5R)-3-(3,4-difluoro-2-methoxyphenyl)-N-(1-hydroxy-3-oxo-2,3-dihydro-1H-benzo[c][1,2]azaborol-6-yl)-5-methyl-5-(trifluoromethyl)tetrahydrothiophene-2-carboxamide]	83.9
COc1c([C@@H]2C[C@](C)(C(F)(F)F)S[C@H]2C(=O)Nc2ccnc(SCN)c2)ccc(F)c1F [a-51-A, (2R,3S,5R)-N-(2-aminomethylthio-4-pyridyl)-3-(3,4-difluoro-2-methoxy-phenyl)-5-methyl-5-(trifluoromethyl)tetrahydrothiophene-2-carboxamide]	88.5
COc1c([C@@H]2C[C@](C)(C(F)(F)F)S[C@H]2C(=O)Nc2ccnc(C(=O)NO)c2)ccc(F)c1F [a-87-A, 4-((2R,3S,5R)-3-(3,4-difluoro-2-methoxyphenyl)-5-methyl-5-(trifluoromethyl)tetrahydrothiophene-2-carboxamido)-N-hydroxypicolinamide]	47.7
COc1c([C@@H]2C[C@](C)(C(F)(F)F)S[C@H]2C(=O)Nc2ccnc(-c3ncon3)c2)ccc(F)c1F [a-48-A, (2R,3S,5R)-3-(3,4-difluoro-2-methoxy-phenyl)-5-methyl-N-[2-(1,2,4-oxadiazol-3-yl)-4-pyridyl]-5-(trifluoromethyl)tetrahydrothiophene-2-carboxamide]	71.9
CNC(=O)c1cc(NC(=O)[C@@H]2S[C@@](C)(C(F)(F)F)C[C@H]2c2ccc(F)c(F)c2OC)ccn1 [Compound 253-A, 4-((2R,3S,5R)-3-(3,4-difluoro-2-methoxyphenyl)-5-methyl-5-(trifluoromethyl)tetrahydrothiophene-2-carboxamido)-N-methylpicolinamide]	68.6
COc1c([C@@H]2C[C@](C)(C(F)(F)F)S[C@H]2C(=O)Nc2cccc(NS(=O)(=O)CC(C)N)c2)ccc(F)c1F (stereo partly drawn) [a-56-A, (2R,3S,5R)-N-(3-((2-aminopropyl)sulfonamido)phenyl)-3-(3,4-difluoro-2-methoxyphenyl)-5-methyl-5-(trifluoromethyl)tetrahydrothiophene-2-carboxamide]	66.4
COc1c([C@@H]2C[C@](C)(C(F)(F)F)S[C@H]2C(=O)N(O)c2ccnc(-c3ncon3)c2)ccc(F)c1F [a-46-A, (2R,3S,5R)-N-(2-(1,2,4-oxadiazol-3-yl)pyridin-4-yl)-3-(3,4-difluoro-2-methoxyphenyl)-N-hydroxy-5-methyl-5-(trifluoromethyl)tetrahydrothiophene-2-carboxamide]	46.7
COc1c([C@@H]2C[C@](C)(C(F)(F)F)S[C@H]2C(=O)Nc2nn(S(=O)(=O)C(F)(F)F)cc2C)ccc(F)c1F [a-43-A, (2R,3S,5R)-3-(3,4-difluoro-2-methoxyphenyl)-5-methyl-N-(4-methyl-1-((trifluoromethyl)sulfonyl)-1H-pyrazol-3-yl)-5-(trifluoromethane)tetrahydrothiophene-2-carboxamide]	40.1

same assay, conditions: concentration of 10 nM, read-out: Inhibition rate %

Compound	inhibition at 0.01 µM [%]
COc1c(C2CC(C)(C(F)(F)F)SC2C(=O)Nc2ccnc(NO)c2)ccc(F)c1F (centres unmarked) [a-16, (4-(3-(3,4-difluoro-2-methoxyphenyl)-5-methyl-5-(trifluoromethyl)tetrahydrothiophene-2-carboxamido)-2-hydroxylamine)pyridine]	92.3
COc1c(C2CC(C)(C(F)(F)F)SC2C(=O)Nc2cn(C(F)F)nc2C)ccc(F)c1F (centres unmarked) [Compound 199, (4-(3-(3,4-difluoro-2-methoxyphenyl)-5-methyl-5-(trifluoromethyl)tetrahydrothiophene-2-carboxamido)-1-difluoromethyl-3-methyl)pyrazole]	89.4
[2H]C1(C(=O)Nc2ccc(F)c(B(O)O)c2)SC(C)(C(F)(F)F)CC1c1ccc(F)c(F)c1OC (centres unmarked) [Compound 20-A, (5-(3-(3,4-difluoro-2-methoxyphenyl)-5-methyl-5-(trifluoromethyl)tetrahydrothiophene-2-carboxamido-2-d)-2-fluorophenyl)boronic acid]	87.9
COc1c(C2CC(C)(C(F)(F)F)SC2C(=O)Nc2ccc(B(O)O)c(Br)c2)ccc(F)c1F (centres unmarked) [Compound 93, (2-bromo-4-(3-(3,4-difluoro-2-methoxyphenyl)-5-methyl-5-(trifluoromethyl)tetrahydrothiophene-2-carboxamido)phenyl)boronic acid]	89.7
COc1c(C2CC(C)(C(F)(F)F)SC2C(=O)Nc2ccc(B(O)O)cc2)ccc(F)c1F (centres unmarked) [Compound 82, (4-(3-(3,4-difluoro-2-methoxyphenyl)-5-methyl-5-(trifluoromethyl)tetrahydrothiophene-2-carboxamido)phenyl)boronic acid]	81.1
COc1c(C2CC(C)(C(F)(F)F)SC2C(=O)Nc2ccc3c(c2)COB3O)ccc(F)c1F (centres unmarked) [Compound 219, 3-(3,4-difluoro-2-methoxyphenyl)-N-(1-hydroxy-1,3-dihydrobenzo[c][1,2]oxaborol-5-yl)-5-methyl-5-(trifluoromethyl)tetrahydrothiophene-2-carboxamide]	88
COc1c([C@@H]2C[C@](C)(C(F)(F)F)S[C@H]2C(=O)Nc2csc(B(O)O)c2)ccc(F)c1F [Compound 48-A, (4-((2R,3S,5R)-3-(3,4-difluoro-2-methoxyphenyl)-5-methyl-5-(trifluoromethyl)tetrahydrothiophene-2-carboxamido)thiophen-2-yl)boronic acid]	91.5
COc1c(C2CC(C)(C(F)(F)F)SC2C(=O)Nc2cc[nH]c(=O)c2)ccc(F)c1F (centres unmarked) [Compound 170, 3-(3,4-difluoro-2-methoxyphenyl)-5-methyl-N-(2-oxo-1,2-dihydropyridin-4-yl)-5-(trifluoromethyl)tetrahydrothiophene-2-carboxamide]	97.9
COc1c(C2CC(C)(C(F)(F)F)SC2C(=O)Nc2cccc(S(=O)(=O)NC#N)c2)ccc(F)c1F (centres unmarked) [Compound a-9, N-(3-(N-cyanosulfamoyl)phenyl)-3-(3,4-difluoro-2-methoxyphenyl)-5-methyl-5-(trifluoromethyl)tetrahydrothiophene-2-carboxamide]	85.3
